Assay results: ChEMBL document CHEMBL6096628, “Discovery of a Highly Potent and Selective BRD9 PROTAC Degrader Based on E3 Binder Investigation for the Treatment of Hematological Tumors” (J Med Chem, 2024)

What was measured:
MV4-11 = assay: Induction of apoptosis in human MV4-11 cells assessed as late apoptotic cells at 0.1 nM incubated for 48 hrs by Annexin V-FITC/PI staining based flow cytometric analysis (reference value: 0.91 %); type: functional
[1] = Toxicity in Balb/c nude mouse xenografted with human OCI-Ly10 cells assessed as effect on body weight at 30 mg/kg, po administered once daily for 18 days; type: organism-based; settings: in vivo, 432 h, time 18 day

COc1cc(-c2cn(C)c(=O)c3ccccc23)cc(OC)c1CN1CCC(CN2CCC(c3ccc4c5c(cccc35)C(=O)N4C3CCC(=O)NC3=O)CC2)CC1 (configuration not stated)
Activity (MV4-11): 3.37%
Activity [1]: Non-toxic
